IC50 data for 67 compounds are collected here from patent publication US9242973B2, “Chromane compounds” (CoMentis, Inc., priority 2012, dated 2016).

The subject of the first test is Aβ production in SK-N-BE(2) neuroblastoma cells. In words: Test Example 3: Aβ production inhibition in cell (Aβ40 ELISA, SK-N-BE(2)). The note with it: Homo sapiens, SKNBE2, 6 h, read-out: Test Example 3 IC50.
As to `CC1(C)Oc2ccc(NC(=O)c3ccc(Cl)cn3)cc2C2(COC(N)=N2)C12COC2` (stereo not shown) [Example 27, N-(2-amino-2′,2′-dimethyldispiro[1,3-oxazole-4,4′-chromene-3′,3″-oxetan]-6′-yl)-5-chloropyridine-2-carboxamide], the IC50 was found to be 9.4 nM.

The test is the same for the next values; noted with them: Homo sapiens, SKNBE2, 6 h, read-out: Test Example 3 IC50, SK-N-BE(2) cells, 6 hours, Aβ40 ELISA normalized by viability.
In the case of `NC1=NC2(CO1)c1cc(C3=CCCCC3)ccc1OC1(CCC1)C21COC1` (stereo not shown) [RP 135], the IC50 stood at 1800 nM.
Still for that read-out and setting: with `CC1(C)Oc2ccc(-c3cncc(Cl)c3)cc2C2(COC(N)=N2)C12COC2` (stereo not shown) [RP 173] the figure was 73 nM.
With `COc1cc(-c2ccc3c(c2)C2(COC(N)=N2)C2(COC2)C2(CCC2)O3)c(F)cn1` (stereo not shown) [RP 122], the IC50 worked out at 1100 nM.
Turning to `CC(C)CC1Oc2ccc(-c3cncnc3)cc2C2(COC(N)=N2)C12COC2` (stereo not shown) [RP 93], the IC50 was found to be 370 nM.
With `CC1(C)Oc2ccc(Br)cc2C2(CSC(N)=N2)C12COC2` (stereo not shown) [RP 42], the IC50 came out at 5900 nM.
`COc1ncc(Cl)cc1-c1ccc2c(c1)C1(COC(N)=N1)C1(COC1)C(C)(C)O2` (stereo not shown) [RP 155]: the IC50 was 630 nM.
The same measure, in the same setting: for `CC1(C)Oc2ccc(NC(=O)c3ccc(F)cn3)cc2[C@@]2(COC(N)=N2)C12CC2` [Example 222] the value was 0.62 nM.
Same read-out and setting: with `CC1(C)Oc2ccc(-c3c(F)ccc(F)c3F)cc2C2(COC(N)=N2)C12COC2` (stereo not shown) [RP 185] the figure was 760 nM; with `CC#Cc1cncc(-c2ccc3c(c2)C2(COC(N)=N2)C2(COC2)C(CCC(F)(F)F)O3)c1` (stereo not shown) [RP 96], 22 nM.
Take `COc1cccc(-c2ccc3c(c2)C2(COC(N)=N2)C2(COC2)C2(CCC2)O3)c1` (stereo not shown) [RP 126]: the IC50 amounted to 1200 nM.
In the case of `NC1=NC2(CO1)c1cc(NC(=O)c3ncc(Br)cn3)ccc1OCC21CC1` (stereo not shown) [RP 189], the half-maximal inhibitory concentration (IC50) turned out to be 43 nM.
As to `N#Cc1cncc(-c2ccc3c(c2)C2(COC(N)=N2)C2(COC2)C2(CCC2)O3)c1` (stereo not shown) [RP 120], the IC50 was 2300 nM.
Regarding `NC1=NC2(c3cc(-c4cncnc4)ccc3OCC23CC3)c2cccc(F)c21` (stereo not shown) [RP 199], the IC50 turned out to be 240 nM.
With `NC1=NC2(CO1)c1cc(-c3cccnc3F)ccc1OC1(CCC1)C21COC1` (stereo not shown) [RP 71], the IC50 was 110 nM.
With `CC1(C)Oc2ccc(Br)cc2C2(COC(N)=N2)C12COC2` (stereo not shown) [RP 6, 6′-bromo-2′,2′-dimethyldispiro[1,3-oxazole-4,4′-chromene-3′,3″-oxetan]-2-amine], the IC50 came out at 3900 nM.
Still for that read-out and setting: with `CC1(C)Oc2ccc(-c3cccc4cccnc34)cc2C2(COC(N)=N2)C12COC2` (stereo not shown) [RP 179] the figure was 1400 nM.
On to `CC#Cc1ccnc(-c2ccc3c(c2)C2(COC(N)=N2)C2(COC2)CO3)c1` (stereo not shown) [RP 56], for which the IC50 is 740 nM.
Turning to `CC1(C)Oc2ccc(-c3cccc(C4CC4)c3)cc2C2(COC(N)=N2)C12COC2` (stereo not shown) [RP 140], the concentration for half-maximal inhibition (IC50) was 410 nM.
On to `CCOc1cccc(-c2ccc3c(c2)C2(COC(N)=N2)C2(COC2)C(C)(C)O3)c1` (stereo not shown) [RP 144], for which the half-inhibitory concentration (IC50) worked out at 460 nM.
For the compound `N#C/C=C/c1cccc(-c2ccc3c(c2)C2(COC(N)=N2)C2(COC2)C2(CCC2)O3)c1` (stereo not shown) [RP 132], the IC50 came out at 1200 nM.
As for `NC1=NC2(CO1)c1cc(NC(=O)c3ccc(F)cn3)ccc1OCC21CC1` (stereo not shown) [RP 31, N-(2″-aminodispiro[cyclopropane-1,3′-chromene-4′,4″-[1,3]oxazol]-6′-yl)-5-fluoropyridine-2-carboxamide], the IC50 was found to be 61 nM.
Same read-out and setting: for `NC1=NC2(CO1)c1cc(-c3cncc(OCC(F)(F)F)c3)ccc1OCC21CC1` (stereo not shown) [RP 58] the value was 180 nM; for `CC1(C)Oc2ccc(NC(=O)c3ccc(Cl)cn3)cc2[C@@]2(COC(N)=N2)C12CC2` [Example 221], 0.16 nM.
With `CC1(C)Oc2ccc(-c3ccc4[nH]ccc4c3)cc2C2(COC(N)=N2)C12COC2` (stereo not shown) [RP 174, 6′-(1H-indol-5-yl)-2′,2′-dimethyldispiro[1,3-oxazole-4,4′-chromene-3′,3″-oxetan]-2-amine], the IC50 stood at 3400 nM.
Consider `NC1=NC2(CO1)c1cc(-c3cc(F)ccc3F)ccc1OC1(CCC1)C21COC1` (stereo not shown) [RP 130], for which the IC50 worked out at 1700 nM.
Take `N#Cc1ccc(C(=O)Nc2ccc3c(c2)C2(COC(N)=N2)C2(CC2)CO3)nc1` (stereo not shown) [RP 196]: the IC50 is 53 nM.
As for `NC1=NC2(CO1)c1cc(-c3cccc(F)c3F)ccc1OC1(CCC1)C21COC1` (stereo not shown) [RP 138], the IC50 was found to be 1500 nM.
Take `COC/C=C/c1ccc2c(c1)C1(COC(N)=N1)C1(COC1)C(C)(C)O2` (stereo not shown) [RP 181]: the IC50 was found to be 820 nM.
For `NC1=NC2(c3cc(-c4cncnc4)ccc3OCC23CC3)C(F)(F)CO1` (stereo not shown) [RP 206], the IC50 is above 30000 nM.
As for `NC1=NC2(CO1)c1cc(-c3cncc(OCC(F)(F)C(F)F)c3)ccc1OCC21CC1` (stereo not shown) [RP 64], the IC50 was 2300 nM.
As for `CC1(C)Oc2ccc(-c3cccnc3F)cc2C2(COC(N)=N2)C12COC2` (stereo not shown) [RP 82], the IC50 turned out to be 36 nM.
Regarding `NC1=NC2(CO1)c1cc(-c3cc(Cl)cnc3F)ccc1OCC21COC1` (stereo not shown) [RP 34], the IC50 came out at 260 nM.
For `CC1(C)Oc2ccc(-c3cc(Cl)cnc3F)cc2C2(COC(N)=N2)C12COC2` (stereo not shown) [RP 154], the IC50 was 32 nM.
On the same count and under the same terms, for `CC1(C)Oc2ccc(-c3cc(F)cc(F)c3)cc2C2(COC(N)=N2)C12COC2` (stereo not shown) [RP 147] the value was 170 nM; for `CC#Cc1cncc(-c2ccc3c(c2)C2(COC(N)=N2)C2(COC2)C(CC)O3)c1` (stereo not shown) [RP 86], 58 nM.
With `Cc1cccc(-c2ccc3c(c2)C2(COC(N)=N2)C2(COC2)C2(CCC2)O3)c1` (stereo not shown) [RP 127], the IC50 turned out to be 1800 nM.
Same read-out and setting: with `CC#Cc1cncc(-c2ccc3c(c2)C2(COC(N)=N2)C2(COC2)C(Cc2ccccc2)O3)c1` (stereo not shown) [RP 201] the figure was 8.7 nM; with `NC1=NC2(CO1)c1cc(-c3cc(Cl)cnc3F)ccc1OC1(CCC1)C21COC1` (stereo not shown) [RP 73], 70 nM.
As to `NC1=NC2(CO1)c1cc(-c3cncc(C(F)F)c3)ccc1OC1(CCC1)C21COC1` (stereo not shown) [RP 118], the IC50 worked out at 990 nM.
For `CCOc1cc(-c2ccc3c(c2)C2(COC(N)=N2)C2(COC2)C2(CCC2)O3)cc(C(F)(F)F)c1` (stereo not shown) [RP 129], the IC50 is 7300 nM.
With `NC1=NC2(CO1)c1cc(-c3cncc(C(F)(F)F)c3)ccc1OC1(CCC1)C21COC1` (stereo not shown) [RP 99], the IC50 was 1900 nM.
On to `NC1=NC2(CO1)c1cc(-c3cncnc3)ccc1OC(CC1CC1)C21COC1` (stereo not shown) [RP 204], for which the IC50 worked out at 240 nM.
With `NC1=NC2(CO1)c1cc(-c3cncc(OC(F)F)c3)ccc1OCC21CC1` (stereo not shown) [RP 60], the IC50 was 160 nM.
Take `NC1=NC2(CO1)c1cc(-c3cccc(F)c3)ccc1OC1(CCC1)C21COC1` (stereo not shown) [RP 125]: the IC50 stood at 580 nM.
The same measure, in the same setting: for `CC#Cc1cncc(-c2cc3c(cc2F)OCC2(CC2)C32COC(N)=N2)c1` (stereo not shown) [RP 112] the value was 660 nM.
Turning to `NC1=NC2(COC1)c1cc(-c3cncnc3)ccc1OCC21CC1` (stereo not shown) [RP 215, 6′-(pyrimidin-5-yl)-6″H-dispiro[cyclopropane-1,3′-chromene-4′,3″-[1,4]oxazin]-5″-amine], the IC50 came to 240 nM.
`Cc1cc(-c2ccc3c(c2)C2(COC(N)=N2)C2(COC2)C(C)(C)O3)cnc1F` (stereo not shown) [RP 157]: the concentration for half-maximal inhibition (IC50) was 660 nM.
With `CC(C)Cc1ccc2c(c1)C1(COC(N)=N1)C1(COC1)C1(CCC1)O2` (stereo not shown) [RP 46, 6′-isobutyltrispiro[cyclobutane-1,2′-chromene-4′,4″-[1,3]oxazole-3′,3′″-oxetan]-2″-amine], the IC50 was determined as 1400 nM.
Take `CC1(C)Oc2ccc(-c3cccc(C(F)(F)F)c3)cc2C2(COC(N)=N2)C12COC2` (stereo not shown) [RP 141]: the IC50 was determined as 1300 nM.
Still for that read-out and setting: with `CC#Cc1cncc(-c2ccc3c(c2)C2(COC(N)=N2)C2(CC2)CO3)c1` (stereo not shown) [RP 111] the figure was 140 nM; with `CC1(C)Oc2ccc(-c3cc(F)cnc3Cl)cc2C2(COC(N)=N2)C12COC2` (stereo not shown) [RP 153], 130 nM; with `CC1(C)Oc2ccc(NC(=O)c3cnc(C(F)F)cn3)cc2[C@@]2(COC(N)=N2)C12CC2` [Example 224, N-[(4′R)-2″-amino-2′,2′-dimethyldispiro[cyclopropane-1,3′-chromene-4′,4″-[1,3]oxazol]-6′-yl]-5-(difluoromethyl)pyrazine-2-carboxamide], 0.63 nM.
In the case of `CC1(C)Oc2ccc(-c3cccc4[nH]ncc34)cc2C2(COC(N)=N2)C12COC2` (stereo not shown) [RP 176], the IC50 turned out to be 850 nM.
Turning to `COc1cnc(C(=O)Nc2ccc3c(c2)C2(COC(N)=N2)C2(CC2)CO3)cn1` (stereo not shown) [RP 193], the 50% inhibitory concentration (IC50) was 81 nM.
The same measure, in the same setting: with `CCOc1cc(F)cc(-c2ccc3c(c2)C2(COC(N)=N2)C2(COC2)C2(CCC2)O3)c1` (stereo not shown) [RP 133] the figure was 2800 nM; with `CC#Cc1cncc(-c2ccc3c(c2)C2(COC(N)=N2)C2(COC2)C2(CCC2)O3)c1` (stereo not shown) [RP 109], 48 nM; with `CCc1cncc(-c2ccc3c(c2)C2(COC(N)=N2)C2(CC2)CO3)c1` (stereo not shown) [RP 63], 3300 nM.
As for `COc1cccnc1Nc1ccc2c(c1)C1(COC(N)=N1)C1(COC1)C1(CCC1)O2` (stereo not shown) [RP 45], the IC50 was 57 nM.
On to `NC1=NC2(CO1)c1cc(-c3cncnc3)ccc1OC(Cc1ccccc1)C21COC1` (stereo not shown) [RP 200], for which the IC50 was determined as 26 nM.
For `CC1(C)Oc2ccc(-c3cnc4[nH]ccc4c3)cc2C2(COC(N)=N2)C12COC2` (stereo not shown) [RP 168], the IC50 came out at 310 nM.
With `NC1=NC2(CS1)c1cc(Br)ccc1OCC21COC1` (stereo not shown) [RP 41, 6′-bromodispiro[oxetane-3,3′-chromene-4′,4″-[1,3]thiazol]-2″-amine], the IC50 was above 30000 nM.
Still for that read-out and setting: for `COc1ccc(F)c(-c2ccc3c(c2)C2(COC(N)=N2)C2(COC2)CO3)c1` (stereo not shown) [RP 33] the value was 950 nM; for `CCC(CC)Cc1ccc2c(c1)C1(COC(N)=N1)C1(COC1)C1(CCC1)O2` (stereo not shown) [RP 47], 1400 nM.
`CC1(C)Oc2ccc(NC(=O)c3ccc(Cl)cn3)cc2[C@@]2(COC(N)=N2)C12COC2` [Example 218, N-[(4S)-2-amino-2′,2′-dimethyldispiro[1,3-oxazole-4,4′-chromene-3′,3″-oxetan]-6′-yl]-5-chloropyridine-2-carboxamide]: the concentration for half-maximal inhibition (IC50) was 0.78 nM.
Take `COc1cncc(-c2ccc3c(c2)[C@@]2(COC(N)=N2)C2(COC2)[C@@H](C)O3)c1` (racemic) [RP 81]: the IC50 stood at 510 nM.
The same measure, in the same setting: for `NC1=NC2(CO1)c1cc(-c3cncnc3)ccc1OC1(CCCC1)C21COC1` (stereo not shown) [RP 85] the value was 77 nM.

The IC50 is the concentration at which inhibition is half-maximal.
